Results from patent US7915297B2, “Isoxazole derivatives and use thereof” (SK Holdings Co., Ltd., priority 2005, dated 2011).

Legend:
[1] = tested on: Wnt/β-catenin signaling (β-catenin activity) in HEK293 cell line; experiment: Cell-based Wnt agonist screening, TCF luciferase reporter, HEK293 (TCF-FL); parameters: species or system human; details: Homo sapiens, HEK293, 24 h, % of LiCl (20 mM), 24 h, read-out: Max. Activity (%); for Emax at 120 µM: Conc. 120 μM; for Emax at 30 µM: Conc. 30 μM; for Emax at 10 µM: Conc. 10 μM
Summary of the method: (§1)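 HEK293 and SW480 lines stably carried a 5X TCF firefly luciferase reporter under G418 selection. Cells (8,000–15,000/well, RPMI 1640 with 5% FBS) were grown 24 h, then treated with compound for 24 h. Luciferase activity was expressed as percent of the 20 mM LiCl positive control.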

[2] = tested on: Wnt/β-catenin signaling (β-catenin activity) in SW480 cell line; experiment: Cell-based Wnt agonist screening, TCF luciferase reporter, SW480 (TCF-FL); parameters: species or system human; details: Homo sapiens, % of LiCl (20 mM), 24 h, read-out: Max. Activity (%); for Emax at 120 µM: Con. 120 μM; for Emax at 30 µM: Con. 30 μM; for Emax at 10 µM: Con. 10 μM
Summary of the method: as §1

[3] = tested on: ST-2, a murine bone marrow stromal T cell; experiment: Differentiation of ST2 cell line into osteoblasts, alkaline phosphatase activity; format: cell-based; details: Mus musculus, 96 h; ST-2 cells, 11 μM compound, 4 days; control treated only with ascorbic acid and β-glycerolphosphate = 100; read-out: ALP Activity (% Control)
Description: The derivatives synthesized according to the present invention were assayed for their ability to differentiate stem cells into osteoblasts. In this regard, ST-2, a murine bone marrow stromal T cell, was used to measure the activity of bone-specific alkaline phosphatase, a marker of early-stage osteoblast differentiation. In detail, the cell line was cultured in an MEM supplemented with penicillin-streptomycin (100 Units/mL) and heat-inactivated 5% fetal bovine serum under standard culture conditions (5% CO2, 37° C., 100% relative humidity). […] The suspension was diluted with the same medium to adjust the cell count to 5,000˜10,000 cells per well, and was moved in a 96-well microtiter, subsequently. After being incubated for 24 hrs, the cells were treated in a medium containing 50 μg/ml of ascorbic acid and 5 mM of β-glycerolphosphate with various concentrations of the isoxazole derivatives synthesized in Preparation Examples. During incubation for one to nine days, the Alkaline phosphatase activity was analyzed using a […] Assay kit (Promega, U.S.A.) according to the protocol described in the manual provided by the manufacturer. The activities were measured in cells which had been incubated at 11 μM of each of the compounds for 4 days. Data on the activities of the isoxazole derivatives synthesized are given in Tables 44 to 47 and are expressed as percentages of ALP relative to that measured in the control, which was treated only with ascorbic acid and β-glycerolphosphate. ALP activities according to the concentrations of Derivative (1) are depicted in FIG. 5.

ovariectomized ICR mice = experiment: In vivo osteoporosis assay in ovariectomized ICR mice (DEXA, micro-CT of spine L3-L6); details: Group 4 (OVX + AD): alendronate 5 mg/kg/day, oral, four weeks
Description: Experimental animals were female ICR mice having body weights of 24-28 g which were about 7 weeks old. In each cage, measuring 40×25×17 cm, 2-3 mice were reared at 22° C., RH 50%.
Ovariectomy is known as one of the most widely used techniques for inducing osteoporosis. As in postmenopause case, the ovariectomy-operation induce estrogen insufficient, result in decrease of osteogenesis and increase of bone resorption, lead to osteoporosis. Anaesthetized 7-week-old female ICR mice underwent ovariectomies and, immediately after the removal of both ovaries, they were administered with test compounds to determine the preventive and therapeutic effects thereof on osteoporosis.
1) Preparation of test material: Predetermined amounts of Derivative (1) were suspended in 0.5% CMC to prepare test materials to be administered. As for the control drug alendronate, 0.17% citric acid was added thereto as a pharmacopoeia to aid in the uptake of the drug.
2) Administration period: four weeks
3) Administration route and method: test materials were administered in a volume of 10 ml/kg of body weight, measured on the administration day, into seven groups: (1) intact control (ICR mice bred with typical diet, control); (2) ovariectomy control (the abdomen opened and closed without removal of the ovary, Sham); (3) ovariectomy group (ovaries removed, OVX); (4) alendronate-treated group (a dose of 5 mg/kg/day); (5) Derivative (1) 30 mg/kg/day treated group (OVX+Derivative (1) 30 mpk); (6) Derivative (1) 90 mg/kg/day treated group (OVX+Derivative (1) 90 mpk); and (7) Derivative (1) […] treated group (OVX+Derivative (1) 30 mpkW). Groups (1)˜(6) were orally treated five day a week for four weeks while group (7) was treated once a week for four weeks.
After administration for four weeks, the spine (L3-L6) was analyzed for bone mineral density (BMD) through dual-energy X-ray absorptiometry (DEXA) using a Lunar Pixi #5 instrument. Micro-computed tomography (Micro-CT) was performed to determine the effects of the test materials on bone mass and bone strength and on the tertiary bone mass of the spine (L3-L6).

| Structure (SMILES) | Emax at 120 µM [1] | Emax at 120 µM [2] | activity at 11 µM [3] | Emax at 30 µM [1] | Emax at 30 µM [2] | other results |
| --- | --- | --- | --- | --- | --- | --- |
| Cc1cncn1CCNC(=O)c1cc(-c2ccco2)on1 [Derivative (36), 5-furan-2-yl-isoxazole-3-carboxylic acid [2-(5-methyl-imidazol-1-yl)-ethyl]-amide] | 71% | 283% | 396% |  |  |  |
| O=C(NCCn1cccn1)c1cc(-c2ccc(F)cc2)on1 [Derivative (87), 5-(4-fluoro-phenyl)-isoxazole-3-carboxylic acid (2-pyrazol-1-yl-ethyl)-amide] |  |  | 428% | < 20% | < 20% |  |
| COc1ccccc1-c1cc(C(=O)NCCc2ccncc2)no1 [Derivative (104), 5-(2-methoxy-phenyl)-isoxazole-3-carboxylic acid (2-pyridin-4-yl-ethyl)-amide] |  |  | 103% | 35% |  | Emax at 60 µM ([1]; Conc. 60 μM): 884%; Emax at 60 µM ([2]; Con. 60 μM): 884% |
| NCCCC(O)(P(=O)(O)O)P(=O)(O)O [Alendronate, alendronate, reference compound] |  |  |  |  |  | BMD (g/cm^2) Avg. ± SD (ovariectomized ICR mice; five day a week, spine L3-L6, DEXA): 0.066 ± 0.012 g/cm^2; BMD Change (%) (ovariectomized ICR mice; Sham = 0.0): −4.3%; Trabeculae volume Change (%) (ovariectomized ICR mice; Sham = 0.0): −25.1%; Trabeculae volume(mm^2) Avg. ± SD (ovariectomized ICR mice; spine L3-L6, micro-CT): 15.5 ± 3.27 mm^2 |
| COc1ccc(CCNC(=O)c2cc(-c3ccco3)on2)cc1 [Derivative (21), 5-furan-2-yl-isoxazole-3-carboxylic acid [2-(4-methoxy-phenyl)-ethyl]-amide] |  |  | 334% | 23% | 287% |  |
| Cc1nccn1CCNC(=O)c1cc(-c2ccco2)on1 [Derivative (35), 5-furan-2-yl-isoxazole-3-carboxylic acid [2-(2-methyl-imidazol-1-yl)-ethyl]-amide] | 35% | 130% | 686% |  |  |  |
| COc1ccc(-c2cc(C(=O)NCCCn3ccnc3)no2)cc1 [Derivative (101), 5-(4-methoxy-phenyl)-isoxazole-3-carboxylic acid (3-imidazol-1-yl-propyl)-amide] | 205% | 205% | 592% |  |  |  |
| O=C(NCCCn1ccnc1)c1cc(-c2ccc(Cl)cc2)on1 [Derivative (98), 5-(4-chloro-phenyl)-isoxazole-3-carboxylic acid (3-imidazol-1-yl-propyl)-amide] | 54% | 54% | 90% |  |  |  |
| O=C(NCCn1ccnc1)c1cc(-c2ccc(F)cc2)on1 [Derivative (86), 5-(4-fluoro-phenyl)-isoxazole-3-carboxylic acid (2-imidazol-1-yl-ethyl)-amide] |  |  | 546% | < 20% | < 20% |  |
| O=C(NCCc1ccc(O)c(O)c1)c1cc(-c2ccco2)on1 [Derivative (28), 5-furan-2-yl-isoxazole-3-carboxylic acid [2-(3,4-dihydroxy-phenyl)-ethyl]-amide] |  |  | 436% | < 20% | < 20% |  |
| Cc1ccc(CCNC(=O)c2cc(-c3ccco3)on2)cc1 [Derivative (15), 5-furan-2-yl-isoxazole-3-carboxylic acid (2-p-tolyl-ethyl)-amide] |  |  | 278% | < 20% | < 20% |  |
| O=C(NCCn1ccnc1)c1cc(-c2ccccc2F)on1 [Derivative (85), 5-(2-fluoro-phenyl)-isoxazole-3-carboxylic acid (2-imidazol-1-yl-ethyl)-amide] |  |  | 640% | < 20% | < 20% |  |
| COc1cccc(-c2cc(C(=O)NCCc3ccncc3)no2)c1 [Derivative (103), 5-(3-methoxy-phenyl)-isoxazole-3-carboxylic acid (2-pyridin-4-yl-ethyl)-amide] |  |  | 103% |  |  | Emax at 10 µM [1]: 42%; Emax at 10 µM [2]: 42% |
| O=C(NCCCn1ccnc1)c1cc(-c2ccc([N+](=O)[O-])cc2)on1 [Derivative (114), 5-(4-nitro-phenyl)-isoxazole-3-carboxylic acid (3-imidazol-1-yl-propyl)-amide] |  |  | 339% |  |  | Emax at 1 µM ([1]; Conc. 1 μM): 31%; Emax at 1 µM ([2]; Con. 1 μM): 31% |
| O=C(NCCn1cncn1)c1cc(-c2ccc(Cl)cc2)on1 [Derivative (97), 5-(4-chloro-phenyl)-isoxazole-3-carboxylic acid (2-[1,2,4]triazol-1-yl-ethyl)-amide] |  |  | 91% |  |  | Emax at 10 µM [1]: 53%; Emax at 10 µM [2]: 53% |
| COc1ccc(-c2cc(C(=O)NCCc3ccncc3)no2)cc1 [Derivative (102), 5-(4-methoxy-phenyl)-isoxazole-3-carboxylic acid (2-pyridin-4-yl-ethyl)-amide] | 73% | 73% | 148% |  |  |  |
| COc1ccc(N2CCN(CCNC(=O)c3cc(-c4ccco4)on3)CC2)c(OC)c1 [Derivative (187), 5-furan-2-yl-isoxazole-3-carboxylic acid {2-[4-(2,4-dimethoxyphenyl)-piperazin-1-yl]-ethyl}-amide] |  | 179% | 99% |  |  |  |
| O=C(NCCCn1cncn1)c1cc(-c2ccc(Cl)cc2)on1 [Derivative (96), 5-(4-chloro-phenyl)-isoxazole-3-carboxylic acid (3-[1,2,4]triazol-1-yl-propyl)-amide] | 80% | 80% | 97% |  |  |  |
| CN(CCCNC(=O)c1cc(-c2ccco2)on1)c1ccccc1 [Derivative (203), 5-furan-2-yl-isoxazole-3-carboxylic acid [3-(methyl-phenyl-amino)-propyl]-amide] |  |  | 260% |  | 851% |  |
| COc1cccc(N2CCN(CCNC(=O)c3cc(-c4ccco4)on3)CC2)c1 [Derivative (185), 5-furan-2-yl-isoxazole-3-carboxylic acid {2-[4-(3-methoxyphenyl)-piperazin-1-yl]-ethyl}-amide] |  |  | 714% |  | 810% |  |
